Assay results: patent publication US7741346B2, “Angiogenesis inhibitor” (Santen Pharmaceutical Co., Ltd., priority 2001, dated 2010)

Compound	melting point
CCCCCN(CCC12CC3CC(CC(C3)C1)C2)C(=O)NCCc1ccc(O)cc1	96.3 to 99.4 °C
CCCN(CCCC12CC3CC(CC(C3)C1)C2)C(=O)NCCCc1ccncc1.O=P(O)(O)O	148 to 149 °C
Cl.O=C(NCc1ccncc1)N(CCC1CCCCC1)Cc1cccs1	161.8 to 164.4 °C
Cl.O=C(NCCCc1ccncc1)N(CCC12CC3CC(CC(C3)C1)C2)CCC12CC3CC(CC(C3)C1)C2	120 to 122.5 °C
CCCCCN(CCC12CC3CC(CC(C3)C1)C2)C(=O)CNCCc1ccncc1.Cl.Cl	133.7 to 137 °C
CC(C)CCN(CCC(C)C)C(=O)NCCCc1ccncc1.Cl	120.5 to 131.7 °C
Cl.Cl.NN(CCC12CC3CC(CC(C3)C1)C2)C(=O)NCCCc1ccncc1	~ 100 °C
CC(C)(C)OC(=O)NCCN(CCC12CC3CC(CC(C3)C1)C2)C(=O)NCCCc1cc[n+](Cc2ccccc2)cc1.[Br-]	97 °C
Cl.O=C1CCN(CCC23CC4CC(CC(C4)C2)C3)C(=O)N1CCCc1ccncc1	177 to 178.5 °C
Cl.O=C1CCN(CCC2CCCCC2)C(=O)N1Cc1ccncc1	64 to 74.5 °C
Cl.O=C1CCN(CCCc2ccncc2)C(=O)N1CCC12CC3CC(CC(C3)C1)C2	170 °C
CCCCCN(CCC12CC3CC(CC(C3)C1)C2)C(=O)NC[C@@H]1C[C@@H]1c1ccncc1 (relative stereo) [Compound No. 15-1, cis-1-[2-(1-adamantyl)ethyl]-1-pentyl-3-[2-(4-pyridyl)cyclopropylmethyl]urea]	128 to 130 °C
O=C(NCCCc1ccncc1)N1CCc2ccccc2C1 [Compound No. 1-5, N-[3-(4-Pyridyl)propyl]-1,2,3,4-tetrahydroisoquinoline-2-carboxamide]	76 to 79 °C
O=C(NCCCc1ccncc1)N1CCOCC1 [Compound No. 1-6, N-[3-(4-Pyridyl)propyl]-4-morpholinecarboxamide]	94 to 98 °C
CN(C)CCN(CCC12CC3CC(CC(C3)C1)C2)C(=O)NCCCc1ccncc1 [Compound No. 1-15, 1-[2-(1-Adamantyl)ethyl]-1-[2-(dimethylamino)ethyl]-3-[3-(4-pyridyl)propyl]urea]	104 to 106.5 °C
CCCN(CCC12CC3CC(CC(C3)C1)C2)C(=O)NCCCc1ccncc1 [Compound No. 1-16, 1-[2-(1-Adamantyl)ethyl]-1-propyl-3-[3-(4-pyridyl)propyl]urea]	99 to 103 °C
COCCN(CCC12CC3CC(CC(C3)C1)C2)C(=O)NCCCc1ccncc1 [Compound No. 1-18, 1-[2-(1-Adamantyl)ethyl]-1-(2-methoxyethyl)-3-[3-(4-pyridyl)propyl]urea]	101.5 to 104.5 °C
O=C(NCCCc1ccncc1)N(CCC12CC3CC(CC(C3)C1)C2)CC1CCCC1 [Compound No. 1-21, 1-[2-(1-Adamantyl)ethyl]-1-cyclopentylmethyl-3-[3-(4-pyridyl)propyl]urea]	155 to 158 °C
O=C(NCCCc1ccncc1)N(CCC12CC3CC(CC(C3)C1)C2)CC1CC1 [Compound No. 1-22, 1-[2-(1-Adamantyl)ethyl]-1-cyclopropylmethyl-3-[3-(4-pyridyl)propyl]urea]	123 to 125 °C
C=CCN(CCC12CC3CC(CC(C3)C1)C2)C(=O)NCCCc1ccncc1 [Compound No. 1-23, 1-[2-(1-Adamantyl)ethyl]-1-allyl-3-[3-(4-pyridyl)propyl]urea]	99 to 102 °C
O=C(NCCCc1ccncc1)N(CCC12CC3CC(CC(C3)C1)C2)Cc1cccs1 [Compound No. 1-27, 1-[2-(1-Adamantyl)ethyl]-3-[3-(4-pyridyl)propyl]-1-(2-thienyl)methylurea]	142.5 to 144.5 °C
CCCCCCN(CCC12CC3CC(CC(C3)C1)C2)C(=O)NCCCc1ccncc1 [Compound No. 1-29, 1-[2-(1-Adamantyl)ethyl]-1-hexyl-3-[3-(4-pyridyl)propyl]urea]	119.5 to 121.5 °C
CC(C)=CCN(CCC12CC3CC(CC(C3)C1)C2)C(=O)NCCCc1ccncc1 [Compound No. 1-31, 1-[2-(1-Adamantyl)ethyl]-1-(3-methyl-2-butenyl)-3-[3-(4-pyridyl)propyl]urea]	93 to 96 °C
CCCCCCCCCCN(CCC12CC3CC(CC(C3)C1)C2)C(=O)NCCCc1ccncc1 [Compound No. 1-32, 1-[2-(1-Adamantyl)ethyl]-1-decyl-3-[3-(4-pyridyl)propyl]urea]	75 to 76 °C

Compound	melting point
C=C(C)CN(CCC12CC3CC(CC(C3)C1)C2)C(=O)NCCCc1ccncc1 [Compound No. 1-33, 1-[2-(1-Adamantyl)ethyl]-1-(2-methyl-2-propenyl)-3-[3-(4-pyridyl)propyl]urea]	108 to 109 °C
O=C(NCCCc1ccncc1)N(CC=Cc1ccccc1)CCC12CC3CC(CC(C3)C1)C2 [Compound No. 1-34, 1-[2-(1-Adamantyl)ethyl]-1-cinnamyl-3-[3-(4-pyridyl)propyl]urea]	130 to 134.5 °C
CN(CCC12CC3CC(CC(C3)C1)C2)C(=O)NCCCc1ccncc1 [Compound No. 1-40, 1-[2-(1-Adamantyl)ethyl]-1-methyl-3-[3-(4-pyridyl)propyl)urea]	99 to 109 °C
CCN(CCC12CC3CC(CC(C3)C1)C2)C(=O)NCCCc1ccncc1 [Compound No. 1-41, 1-[2-(1-Adamantyl)ethyl]-1-ethyl-3-[3-(4-pyridyl)propyl]urea]	106 to 115 °C
O=C(NCCCc1ccncc1)N(CCC12CC3CC(CC(C3)C1)C2)Cc1ccco1 [Compound No. 1-42, 1-[2-(1-Adamantyl)ethyl]-1-furfuryl-3-[3-(4-pyridyl)propyl]urea]	128 to 130 °C
O=C(NCCCc1ccncc1)N(CCC12CC3CC(CC(C3)C1)C2)Cc1ccccc1 [Compound No. 1-43, 1-[2-(1-Adamantyl)ethyl]-1-benzyl-3-[3-(4-pyridyl)propyl]urea]	130.5 to 135 °C
CCCCCN(CCC1CCCCC1)C(=O)NCc1ccncc1 [Compound No. 1-52, 1-(2-Cyclohexylethyl)-1-pentyl-3-(4-pyridyl)methylurea]	64.7 to 65.8 °C
O=C(NCCCc1ccncc1)N(CCC12CC3CC(CC(C3)C1)C2)CCC12CC3CC(CC(C3)C1)C2 [Compound No. 1-56, 1,1-Bis[2-(1-adamantyl)ethyl]-3-[3-(4-pyridyl)propyl]urea]	80 °C
CCCCN(CCC12CC3CC(CC(C3)C1)C2)C(=O)NCCCc1ccncc1 [Compound No. 1-57, 1-[2-(1-Adamantyl)ethyl]-1-butyl-3-[3-(4-pyridyl)propyl]urea]	109.5 to 118 °C
O=C(N(CCCc1ccncc1)Cc1ccccc1)N(CCCc1ccccc1)C1CCCCC1 [Compound No. 1-60, 1-Cyclohexyl(phenyl)methyl-1-(3-phenylpropyl)-3-[3-(4-pyridyl)propyl]urea]	107 to 112 °C
O=C(NCCCc1ccncc1)N(C1CCCCC1)C1CCCCC1 [Compound No. 1-61, 1,1-Dicyclohexyl-3-[3-(4-pyridyl)propyl]urea]	143 to 145.5 °C
CCCCCNC(=O)N(CCCc1ccncc1)CCC12CC3CC(CC(C3)C1)C2 [Compound No. 1-66, 1-[2-(1-Adamantyl)ethyl]-3-pentyl-1-[3-(4-pyridyl)propyl]urea]	47 to 50 °C
CC(C)N(CCC12CC3CC(CC(C3)C1)C2)C(=O)NCCCc1ccncc1 [Compound No. 1-68, 1-[2-(1-Adamantyl)ethyl]-1-isopropyl-3-[3-(4-pyridyl)propyl]urea]	132 to 134 °C
CC(C)(C)OC(=O)CCN(CCC12CC3CC(CC(C3)C1)C2)C(=O)NCCCc1ccncc1 [Compound No. 1-69, 1-[2-(1-Adamantyl)ethyl]-1-[2-(t-butoxycarbonyl)ethyl]-3-[3-(4-pyridyl)propyl]urea]	124.5 to 127 °C
O=C(NCCCc1ccncc1)N(CCC12CC3CC(CC(C3)C1)C2)C1CCCC1 [Compound No. 1-70, 1-[2-(1-Adamantyl)ethyl]-1-cyclopentyl-3-[3-(4-pyridyl)propyl]urea]	135.5 to 137.5 °C
CCCCCN(CCC12CC3CC(CC(C3)C1)C2)C(=O)NCc1ccccn1 [Compound No. 1-72, 1-[2-(1-Adamantyl)ethyl]-1-pentyl-3-(2-pyridyl)methylurea]	87.5 to 92 °C
CCCCCN(CCC12CC3CC(CC(C3)C1)C2)C(=O)NCc1cccnc1 [Compound No. 1-73, 1-[2-(1-Adamantyl)ethyl]-1-pentyl-3-(3-pyridyl)methylurea]	88.5 to 101.5 °C
CCCCCN(CCC12CC3CC(CC(C3)C1)C2)C(=O)NCc1ccncc1 [Compound No. 1-74, 1-[2-(1-Adamantyl)ethyl]-1-pentyl-3-(4-pyridyl)methylurea]	96.5 to 108 °C
CCCCCN(CCC12CC3CC(CC(C3)C1)C2)C(=O)NCCc1ccccn1 [Compound No. 1-75, 1-[2-(1-Adamantyl)ethyl]-1-pentyl-3-[2-(2-pyridyl)ethyl]urea]	80 to 100 °C
CCCCCN(CCC12CC3CC(CC(C3)C1)C2)C(=O)NCCc1cccnc1 [Compound No. 1-76, 1-[2-(1-Adamantyl)ethyl]-1-pentyl-3-[2-(3-pyridyl)ethyl]urea]	112.5 to 114.5 °C
CCCCCN(CCC12CC3CC(CC(C3)C1)C2)C(=O)NCCc1ccncc1 [Compound No. 1-80, 1-[2-(1-Adamantyl)ethyl]-1-pentyl-3-[2-(4-pyridyl)ethyl]urea]	107 to 118 °C
CCCCCN(CCC12CC3CC(CC(C3)C1)C2)C(=O)NCCCc1ccccn1 [Compound No. 1-83, 1-[2-(1-Adamantyl)ethyl]-1-pentyl-3-[3-(2-pyridyl)propyl]urea]	84.4 to 85.7 °C
CCCCCN(CCC12CC3CC(CC(C3)C1)C2)C(=O)NCCCc1cccnc1 [Compound No. 1-84, 1-[2-(1-Adamantyl)ethyl]-1-pentyl-3-[3-(3-pyridyl)propyl]urea]	99.9 to 105.2 °C
CCCCCN(CCC12CC3CC(CC(C3)C1)C2)C(=O)NCCCCc1ccncc1 [Compound No. 1-87, 1-[2-(1-Adamantyl)ethyl]-1-pentyl-3-[4-(4-pyridyl)butyl]urea]	74.1 to 78.1 °C
